This note sets out measurements from paper PMC5690597, “Suppression and resolution of autoimmune arthritis by rhesus θ-defensin-1, an immunomodulatory macrocyclic peptide” (PLoS ONE, 2017).

Bridge positions count the residues as written; N and C are the ends. Peptide text beside a SMILES is read from it.

Series [1] has as its target ADAM17 (Homo sapiens, UniProt P78536). Briefly: biochemical. As for the experimental part:
(§1) RTD-1 was analyzed for enzymatic inhibition against zinc metalloproteases ADAM17, ADAM10, matrix metalloproteases (MMPs) 1, 2, 3, 8, 9, 13, and 14, and cysteine cathepsins (Cats) B, C, H, K, L, S, and V (Table 1). ADAM10 and ADAM17 activities were measured by release of fluorogenic peptides cleaved from pro-TNF (R&D Systems, Minneapolis, MN). ADAM10 was diluted to 0.05 μg/ml and ADAM17 to 0.1 μg/ml with 25 mM TRIS, 2.5 μM ZnCl2, 0.005% Brij35, pH 9.0 and incubated with 0 to 3 μg/ml RTD-1 dissolved in 0.01% HOAc. Assay was initiated by addition of substrate (10 μM final) and enzymatic activity measured at 37°C (ADAM10) or 22°C (ADAM17) every 30 seconds for 1 h in a SpectraMax M5e fluorometer (Molecular Devices, Sunnyvale, CA) with 320 nm excitation and 405 nm emission.
(§2) Inhibition of MMPs by RTD-1 was performed as described, incubating each enzyme with 0–100 μg/ml of RTD-1. IC50 values were calculated by GraphPad Prism 5.01 (GraphPad Software, San Diego, CA) utilizing a non-linear curve fit of log [inhibitor] versus response with variable slope.

The target of series [2] is ADAM10 (Homo sapiens, UniProt O14672). The series can be described thus: biochemical. As for the experimental part:
as §1, §2

The subject of series [3] is DA rats with advanced PIA. The series can be described thus: Severe (advanced) pristane-induced arthritis (AS ≥ 12). Type of series: in vivo, rat. How it is done: Female DA/OlaHsd (D blood group allele and Agouti, also known as Dark Agouti), rats were obtained from Harlan Laboratories (Indianapolis, IN). Animals were allowed to acclimate for 48–72 hours prior to experimental use. Animals were fed standard chow ad lib during a 12-hour day/night cycle. PIA was induced in 5–7 week old animals (90–100 gm) by intradermal injection of 250 μl pristane (Sigma) divided into 3–5 sites at the base of the tail. Animals were monitored daily and disease severity of each limb was scored 0–4 using the method of Brand et al.. The severity scores for all limbs of individual animals were totaled to give an individual’s arthritis severity score (AS) ranging from zero for normal animals to maximum disease score of sixteen. Disease severity was assessed by at least two scorers and the inter-rater agreement (kappa) value was 0.806 as determined using MedCalc Statistical Software version 14.8.1 (MedCalc Software, Ostend, Belgium). In three separate trials, treatment was also blinded to scorers. There was no statistical difference between blinded and unblinded scoring of any treatment cohort. Treatment with saline (vehicle), RTD-1, or anti-arthritic agents was randomized and initiated when an animal first presented with an AS of 3 or more. […]

Series [4] relates to FLS from PIA rats. Briefly: FLS invasion assay (Matrigel-coated transwell). Type of series: cell-based. The conditions noted are these: RTD-1 0.1 μg/ml; 24 h; 7 different rat DA FLS cell lines, mean. How it is done: (§3) Fibroblast-like synoviocytes (FLS) were isolated by enzymatic digestion of the synovial tissue from DA rats with PIA as previously described. Cells were washed and suspended in DMEM supplemented with 10% fetal bovine serum (Gibco, Grand Island, NY), 30 mg/ml L-glutamine (Sigma), 250 μg/ml amphotericin B (Sigma), and […] gentamicin (Gibco). After overnight culture, non-adherent cells were removed and adherent cells were cultured to approximately 70–90% confluence and passaged following detachment with 0.25% trypsin-EDTA for 3 min at 37°C. All experiments were performed with FLS after at least four passages.
FLS invasiveness was assayed in vitro using Matrigel-coated inserts in a transwell system (Becton, Dickinson and Company, Franklin Lakes, NJ) as previously described. Briefly, DA rat FLS (70–80% confluent) isolated as described above were suspended at 2.0 × 10^4 cells/well in serum-free DMEM. Cells were placed in the upper compartment of the Matrigel-coated inserts to which RTD-1 was added to final concentrations of 0.1, 1, or 10 μg/ml. The lower compartment contained complete medium with 10% FBS and plates were incubated at 37°C. […] The opposite side of the insert was stained with Crystal Violet (Sigma) and the total number of invading cells was counted at 100X magnification. […]

The conditions of series [5]: no method or data given.
The conditions of series [6]: administered subcutaneously; this study and ref 9.
Series [7] deals with IL-6 production by fibroblast-like synoviocytes (FLS). The series can be described thus: Expression of IL-6 by stimulated FLS. Type of series: cell-based, DA rat. The conditions noted are these: RTD-1 10 μg/ml; TNFα or IL-1β 3 or 10 ng/ml; 24 h; ELISA; n = 12, 3 experiments. As for the experimental part:
as §3
FLS were cultured in 12-well plates at 4–6 × 10^4 cells/well for 24 h (viability > 95% by trypan blue staining). Medium was replaced and FLS were incubated with TNFα or IL-1β at final concentrations of 3 or 10 ng/ml plus RTD-1 (10 μg/ml in 0.01% acetic acid (HOAc)) or vehicle alone. After 24 h incubation, FLS culture supernatants were removed, clarified by centrifugation, and analyzed for IL-6 by ELISA (Invitrogen, Carlsbad, CA).
(In general: In an ELISA, binding on a coated surface is turned into a signal by an enzyme label.)

ADAM17, sequence (P78536 215-824, species assumed): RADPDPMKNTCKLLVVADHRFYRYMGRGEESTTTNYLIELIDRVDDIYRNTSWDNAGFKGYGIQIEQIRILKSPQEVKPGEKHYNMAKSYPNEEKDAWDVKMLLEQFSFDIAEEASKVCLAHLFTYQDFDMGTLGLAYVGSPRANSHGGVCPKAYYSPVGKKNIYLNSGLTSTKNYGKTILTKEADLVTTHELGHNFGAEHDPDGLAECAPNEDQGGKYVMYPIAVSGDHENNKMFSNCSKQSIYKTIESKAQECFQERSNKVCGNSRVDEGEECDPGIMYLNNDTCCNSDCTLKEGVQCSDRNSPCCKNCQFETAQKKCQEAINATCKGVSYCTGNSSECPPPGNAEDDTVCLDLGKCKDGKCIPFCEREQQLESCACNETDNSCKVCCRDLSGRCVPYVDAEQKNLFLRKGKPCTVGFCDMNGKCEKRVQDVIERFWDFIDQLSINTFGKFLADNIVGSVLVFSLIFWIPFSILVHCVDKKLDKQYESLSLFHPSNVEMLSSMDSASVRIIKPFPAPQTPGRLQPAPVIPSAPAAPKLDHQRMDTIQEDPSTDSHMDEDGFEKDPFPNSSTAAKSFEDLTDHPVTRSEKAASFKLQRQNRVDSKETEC
ADAM10, sequence (O14672 214-748, species assumed): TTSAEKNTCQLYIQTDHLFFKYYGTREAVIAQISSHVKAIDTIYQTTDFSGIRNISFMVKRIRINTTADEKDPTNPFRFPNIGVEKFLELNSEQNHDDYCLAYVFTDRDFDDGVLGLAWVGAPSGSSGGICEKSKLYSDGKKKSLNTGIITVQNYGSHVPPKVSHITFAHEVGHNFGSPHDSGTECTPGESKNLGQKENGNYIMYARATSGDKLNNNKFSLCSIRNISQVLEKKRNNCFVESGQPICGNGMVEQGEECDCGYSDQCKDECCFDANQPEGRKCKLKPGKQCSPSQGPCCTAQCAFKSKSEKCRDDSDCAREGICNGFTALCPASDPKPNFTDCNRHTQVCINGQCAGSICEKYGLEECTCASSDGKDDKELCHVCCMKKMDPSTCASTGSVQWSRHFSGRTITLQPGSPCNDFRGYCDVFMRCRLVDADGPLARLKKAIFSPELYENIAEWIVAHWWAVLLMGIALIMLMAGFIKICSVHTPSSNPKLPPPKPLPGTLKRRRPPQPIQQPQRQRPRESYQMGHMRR

What is called IC50 is the point on the concentration scale where inhibition reaches its midpoint. As to `CC[C@H](C)[C@@H]1NC(=O)[C@@H]2CSSC[C@H](NC(=O)[C@H](CCCNC(=N)N)NC(=O)[C@@H]3CSSC[C@H](NC1=O)C(=O)N[C@@H]([C@@H](C)O)C(=O)N[C@@H](CCCNC(=N)N)C(=O)NCC(=O)N[C@@H](Cc1ccccc1)C(=O)N3)C(=O)N[C@@H](CC(C)C)C(=O)N[C@H]1CSSC[C@H](NC(=O)[C@H](C(C)C)NC(=O)CNC(=O)[C@H](CCCNC(=N)N)NC(=O)[C@H](CCCNC(=N)N)NC1=O)C(=O)N[C@@H](CCCNC(=N)N)C(=O)N2` [RTD-1, rhesus θ-defensin 1] (cyclo(GFCRCLCRRGVCRCICTR); disulfide 3-16, 5-14, 7-12), the IC50 in series [1] worked out at 110 ± 40 nM; in series [2], 450 ± 200 nM. Moreover, in series [3] (5 mg/kg s.c. daily until AS = 0, AS ≥ 12 before treatment), the “resolution of clinical disease by day 15” value is “complete resolution of clinical disease in all RTD-1 treated rats”. Further, in series [3] (after treatment stop and a disease-free interval), the “RTD-1 treated animals that relapsed with joint disease” value is reported as “three of five”. In series [4], the “inhibition of FLS invasion” value was determined as 50%. For the same compound, the “stability in rat plasma” value in series [5] is listed as “highly stable”. Further, in series [6], the tolerability entry is reported as “well tolerated”. In addition, the “reduction of IL-6 production by FLS” value in series [7] is listed as 27.3–42.2%.
